Columns and labels:
[1] = Ultraviolet absorption (450 nm) over time of buffered lysine solutions with or without malto-oligosaccharide, warmed to 75° C.; assay type: physicochemical
Experimental: A pH 6 buffered lysine solution was prepared by dissolving L-lysine (0.5 g) in phosphate buffer and adjusting the pH with hydrochloric acid. […] An aqueous solution of a reduced malto-oligosaccharide was prepared by dissolving a reduced malto-oligosaccharide mixture in water to produce a solution having a final solids content of 50% by weight. The buffered lysine solution (2 mL) was dissolved in the aqueous reduced malto-oligosaccharide solution (hydrogenated MALTRIN® M180) (3 mL) to produce a solution.

[2] = test system: Enzeco® Fungal Lactase Concentrate; assay: Lactase enzyme activity before and after freeze drying (glucose released from a buffered lactose solution); assay type: biochemical
Experimental: The enzyme activity was determined in accordance with Mazzobre et al., Biopolymer Science: Food and Non Food Applications, Montpellier (France) Sep. 28-30, 1998 Ed. INRA, Paris, 1999 (Les Colloques, no 91). The procedure is based on measuring the amount of glucose released from a buffered lactose solution. The measurement was done using a YSI 2700 glucose analyzer.
For comparison, a mixture containing lactase and a malto-oligosaccharide was prepared, as follows. A 20% aqueous solution of MALTRIN® M180 (M180) was prepared by dissolving 85.5 g (6.4% moisture) of M180 in 313.5 g of deionized water. Enzeco® Fungal Lactase Concentrate, 1.0 g was added to the slurry and stirred for one hour. A 20.0 ml aliquot of the mixture was removed as a control (sample 8A). The remaining sample was poured into two separate freeze drying pans and each was freeze dried according to the temperature profile in Table 3. The temperature profile shown in column 8B of Table 3 represents the temperature profile for only one of the two samples in the freeze drying pans. The freeze dryer was a Virtis Genesis 25XL unit. Final vacuum of the system was 11.8 mtorr. After freeze drying, the material was removed from the pans and evaluated for enzyme activity. The enzyme activity in column 8B of Table 4 represents an average of the enzyme activities for each of the two samples in the freeze drying pans.
A mixture containing lactase and a reduced malto-oligosaccharide was freeze dried as follows. A 20% aqueous solution of reduced malto-oligosaccharide with a carbohydrate profile that matches MALTRIN® M180 (H-M180) was prepared by dissolving 83.4 g (4.1% moisture) of the reduced malto-oligosaccharide in 315.6 g of deionized water. Enzeco® Fungal Lactase Concentrate (1.0 g) was added to the slurry and stirred for one hour. A 20.0 ml aliquot of the mixture was removed as a control (sample 8C). The remaining sample was poured into two separate freeze drying pans and freeze dried according to the temperature profile in Table 3 (samples 8D-1 and 8D-2). The freeze dryer was a Virtis Genesis 25XL unit. Final vacuum of the system was 11.8 mtorr. After freeze drying, the material was removed from the pans and evaluated for enzyme activity as described in the previous example.
For comparison, a mixture containing lactase and trehalose was freeze dried, as follows. A 20% aqueous solution of trehalose was prepared by dissolving 88.9 g (9.1% moisture) of trehalose in 311.0 g of deionized water. Enzeco® Fungal Lactase Concentrate, 1.0 g was added to the slurry and stirred for-one hour. A 20.0 ml aliquot of the mixture was removed as a control (sample 8E). The remaining sample was poured into two separate freeze drying pans and each was freeze dried according to the temperature profile in Table 3. The temperature profile shown in column 8F of Table 3 represents the temperature profile of only one of the two samples in the freeze drying pans. The freeze dryer was a Virtis Genesis 25XL unit. Final vacuum of the system was 11.8 mtorr. After freeze drying, the material was removed from the pans and evaluated for enzyme activity as described in the previous example. The enzyme activity in column 8F of Table 4 represents an average of the enzyme activities for each of the two samples in the freeze drying pans.
The enzymatic activities shown in Table 4 are expressed as the percentage of glucose liberated in the enzyme assay as measured by the amount of glucose liberated divided by the maximum amount of glucose that can be theoretically liberated.

[3] = test system: Fleischmann's baker's yeast; assay: Yeast viability before and after freeze drying (cell counting after plating on YM agar); assay type: cell-based; settings: yeast viability of freeze dried sample divided by that of control sample
Experimental: Yeast viability was determined by cell counting after plating on yeast extract, malt extract (YM) agar in accordance with the method described in FDA Bacteriological Analytical Manual, 6th Ed., Ch. 4, pp. 401-402 (1984). Yeast viability is expressed as the number of cells per gram of dry solids (gm.ds). The percent yeast survival was determined by dividing the yeast viability of the freeze dried sample by the yeast viability of the control sample.
For comparison, a mixture of yeast cells and a malto-oligosaccharide was freeze dried, as follows. A 20% aqueous solution of MALTRIN® M180 (M180) was prepared by dissolving 85.5 g (6.4% moisture) of M180 in […] of deionized water. A suspension of yeast cells was prepared by dissolving 5.78 g of Fleischmann's baker's yeast in 94.3 g of sterile phosphate buffer. The yeast suspension was stirred for 30 minutes to obtain a relatively homogenous yeast mixture. A 10.0 ml aliquot of the yeast suspension was pipetted into the 20% aqueous M180 solution. A control sample was removed to determine yeast viability by plating on YM agar (sample 9A). […] After freeze drying, sample 9B was removed from the pans and analyzed for yeast viability. […]
A mixture of yeast cells and a reduced malto-oligosaccharide was freeze dried, as follows. […] After freeze drying, samples 9D-1 and 9D-2 were removed from the pans and analyzed for yeast viability. […]

NCCCC[C@H](N)C(=O)O [Control (lysine only), L-lysine]
UV absorption (450 nm) ([1]; time 0 min): 0.044
UV absorption (450 nm) ([1]; time 20 min): 0.043
UV absorption (450 nm) ([1]; time 35 min): 0.044
UV absorption (450 nm) ([1]; time 50 min): 0.046
UV absorption (450 nm) ([1]; time 65 min): 0.047
UV absorption (450 nm) ([1]; time 80 min): 0.048
UV absorption (450 nm) ([1]; time 100 min): 0.050
UV absorption (450 nm) ([1]; time 110 min): 0.050
UV absorption (450 nm) ([1]; time 125 min): 0.051
UV absorption (450 nm) ([1]; time 170 min): 0.055
UV absorption (450 nm) ([1]; time 185 min): 0.057
UV absorption (450 nm) ([1]; time 200 min): 0.057
UV absorption (450 nm) ([1]; time 215 min): 0.059
UV absorption (450 nm) ([1]; time 230 min): 0.059
UV absorption (450 nm) ([1]; time 245 min): 0.058
UV absorption (450 nm) ([1]; time 260 min): 0.061
UV absorption (450 nm) ([1]; time 305 min): 0.061
UV absorption (450 nm) ([1]; time 320 min): 0.063
UV absorption (450 nm) ([1]; time 335 min): 0.063
UV absorption (450 nm) ([1]; time 350 min): 0.063
UV absorption (450 nm) ([1]; time 365 min): 0.064
UV absorption (450 nm) ([1]; time 380 min): 0.065

OC[C@H]1O[C@H](O[C@H]2O[C@H](CO)[C@@H](O)[C@H](O)[C@H]2O)[C@H](O)[C@@H](O)[C@@H]1O [Trehalose, trehalose]
% activity (freeze dried sample divided by control sample not freeze dried) ([2]; Avg. over assay times): 86.6%
% activity (freeze dried sample divided by control sample not freeze dried) ([2]; lactase assay time 0 h): 0%
% activity (freeze dried sample divided by control sample not freeze dried) ([2]; lactase assay time 0.05 h): 72.4%
% activity (freeze dried sample divided by control sample not freeze dried) ([2]; lactase assay time 0.5 h): 90.0%
% activity (freeze dried sample divided by control sample not freeze dried) ([2]; lactase assay time 1 h): 90.7%
% activity (freeze dried sample divided by control sample not freeze dried) ([2]; lactase assay time 2 h): 93.2%
% Yeast Survival [3]: 58.0 (trehalase) %
